# Source: patent US10358434B2, “2-(3-pyridinyl)-1H-benzimidazole derivative compound and medicament containing same” (NIHON MEDI-PHYSICS CO., LTD., priority 2014, dated 2019)
# Assays:
# [1] = system: human adrenal gland section expressing aldosterone-producing adenoma; assay: In vitro autoradiography using human adrenal adenoma; format: binding
# Procedure, shortened: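 Autoradiography readout: PSL in equal-sized ROIs over adenoma (B2) and normal adrenal cortex (B1), expressed as B2/B1 and decay-corrected using half-life, applied activity and plate contact time. Tissue was surgically excised human adrenal, frozen and cut at 7 μm, incubated 10 min with 5-33 kBq/mL tracer in BSA-containing PBS, then imaged after 16-20 h exposure.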
# [2] = In vivo kinetics experiment (radioactivity distribution); parameters: species or system Wistar male rat; settings: rat; for Adrenal gland/blood ratio of radioactivity accumulation / Adrenal gland/fat ratio of radioactivity accumulation / Adrenal gland/kidney ratio of radioactivity accumulation / Adrenal gland/liver ratio of radioactivity accumulation / Adrenal gland/muscle ratio of radioactivity accumulation / Adrenal gland/small intestine ratio of radioactivity accumulation / Radioactivity distribution Adrenal gland / Radioactivity distribution Bladder (including urine) / Radioactivity distribution Blood / Radioactivity distribution Fat / Radioactivity distribution Femur / Radioactivity distribution Heart / Radioactivity distribution Kidney / Radioactivity distribution Large intestine / Radioactivity distribution Liver / Radioactivity distribution Lung / Radioactivity distribution Muscle (lower limbs) / Radioactivity distribution Remaining whole body / Radioactivity distribution Small intestine / Radioactivity distribution Spleen / Radioactivity distribution Stomach / Radioactivity distribution Testis / Radioactivity distribution Whole brain: caudal vein
# Procedure, shortened: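 Tissue radioactivity (% ID/g) and adrenal-to-blood, liver, kidney, small intestine, muscle and fat ratios determined at 10, 30 and 60 min post-dose. Tracers (approximately 1 to 3.7 MBq, saline with 1 w/v % ascorbic acid) injected i.v. into caudal vein of anesthetized 9-week male Wistar rats; organs excised, weighed, counted.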
# [3] = Plasma stability evaluation (TLC analysis); format: in vitro ADME; settings: 37° C., 60 minutes
# Method: Evaluation was made using a heparin-treated normal human plasma pool (Kohjin Bio Co., Ltd.). Compounds [^18F] 100, [^18F] 200, [^123I] 400, [^18F] 500, and [^123I] 601 to 610 obtained by the methods shown in Examples 2, 4, 7, 9, 11, 13, 15, 17, 19, 21, 23, 25, 27, and 29 were each added to the aforementioned human plasma (5 mL), and the obtained mixture was then incubated at 37° C. for 60 minutes. Thereafter, the mixture was centrifuged with addition of methanol, so that a deproteinization treatment was carried out. Thereafter, stability was evaluated by TLC analysis. As TLC analysis conditions, the TLC analysis conditions applied upon the above described synthesis of each compound were applied.
smiles,measurement,setting,value
"Fc1cc2nc(-c3cncc(Cn4ccnc4)c3)n(CCC[18F])c2cc1Cl [[^18F] 500, 6-Chloro-5-fluoro-1-(3-[^18F]fluoropropyl)-2-[5-(imidazol-1-ylmethyl)pyridin-3-yl]benzimidazole]",accumulation of radioactivity in adrenal gland section (autoradiogram),[1]; FIGS. 18 to 31,accumulation of radioactivity was selectively observed in a region in which aldosterone-producing adenoma had been pathologically observed
same,B2/B1 accumulation ratio,[1]; section of FIG. 17(a),5.63
same,"B2 (PSL value, aldosterone-producing adenoma)","[1]; section of FIG. 17(a), site 71a",3619
same,"B1 (PSL value, normal adrenal cortex)","[1]; section of FIG. 17(a), site 72a",643
same,accumulation of radioactivity in adrenal gland vs blood and peripheral tissues,[2]; Tables 9 to 22,"high accumulation of radioactivity in adrenal gland was observed, in comparison to in blood and peripheral tissues"
same,Adrenal gland/blood ratio of radioactivity accumulation,[2]; 10 min after administration,158.10 ± 31.05
same,Adrenal gland/fat ratio of radioactivity accumulation,[2]; 10 min after administration,210.51 ± 56.26
same,Adrenal gland/kidney ratio of radioactivity accumulation,[2]; 10 min after administration,14.57 ± 3.27
same,Adrenal gland/liver ratio of radioactivity accumulation,[2]; 10 min after administration,3.45 ± 0.50
same,Adrenal gland/muscle ratio of radioactivity accumulation,[2]; 10 min after administration,74.08 ± 27.27
same,Adrenal gland/small intestine ratio of radioactivity accumulation,[2]; 10 min after administration,13.90 ± 1.21
same,Radioactivity distribution Adrenal gland,[2]; 10 min after administration,18.45 ± 3.39 % ID/g
same,Radioactivity distribution Bladder (including urine),[2]; 10 min after administration,0.86 ± 0.38 % ID/g
same,Radioactivity distribution Blood,[2]; 10 min after administration,0.12 ± 0.02 % ID/g
same,Radioactivity distribution Fat,[2]; 10 min after administration,0.09 ± 0.02 % ID/g
same,Radioactivity distribution Femur,[2]; 10 min after administration,0.25 ± 0.01 % ID/g
same,Radioactivity distribution Heart,[2]; 10 min after administration,0.31 ± 0.03 % ID/g
same,Radioactivity distribution Kidney,[2]; 10 min after administration,1.28 ± 0.08 % ID/g
same,Radioactivity distribution Large intestine,[2]; 10 min after administration,0.23 ± 0.03 % ID/g
same,Radioactivity distribution Liver,[2]; 10 min after administration,5.32 ± 0.21 % ID/g
same,Radioactivity distribution Lung,[2]; 10 min after administration,0.68 ± 0.08 % ID/g
same,Radioactivity distribution Muscle (lower limbs),[2]; 10 min after administration,0.27 ± 0.08 % ID/g
same,Radioactivity distribution Remaining whole body,[2]; 10 min after administration,0.20 ± 0.02 % ID/g
same,Radioactivity distribution Small intestine,[2]; 10 min after administration,1.32 ± 0.13 % ID/g
same,Radioactivity distribution Spleen,[2]; 10 min after administration,0.93 ± 0.10 % ID/g
same,Radioactivity distribution Stomach,[2]; 10 min after administration,0.86 ± 0.06 % ID/g
same,Radioactivity distribution Testis,[2]; 10 min after administration,0.06 ± 0.01 % ID/g
same,Radioactivity distribution Whole brain,[2]; 10 min after administration,0.02 ± 0.00 % ID/g
same,Adrenal gland/blood ratio of radioactivity accumulation,[2]; 30 min after administration,206.39 ± 28.57
same,Adrenal gland/fat ratio of radioactivity accumulation,[2]; 30 min after administration,295.05 ± 101.53
same,Adrenal gland/kidney ratio of radioactivity accumulation,[2]; 30 min after administration,19.08 ± 3.40
same,Adrenal gland/liver ratio of radioactivity accumulation,[2]; 30 min after administration,4.39 ± 0.61
same,Adrenal gland/muscle ratio of radioactivity accumulation,[2]; 30 min after administration,160.44 ± 36.00
same,Adrenal gland/small intestine ratio of radioactivity accumulation,[2]; 30 min after administration,5.99 ± 1.25
same,Radioactivity distribution Adrenal gland,[2]; 30 min after administration,20.88 ± 2.82 % ID/g
same,Radioactivity distribution Bladder (including urine),[2]; 30 min after administration,2.02 ± 1.20 % ID/g
same,Radioactivity distribution Blood,[2]; 30 min after administration,0.10 ± 0.01 % ID/g
same,Radioactivity distribution Fat,[2]; 30 min after administration,0.07 ± 0.02 % ID/g
same,Radioactivity distribution Femur,[2]; 30 min after administration,0.14 ± 0.01 % ID/g
same,Radioactivity distribution Heart,[2]; 30 min after administration,0.25 ± 0.02 % ID/g
same,Radioactivity distribution Kidney,[2]; 30 min after administration,1.10 ± 0.08 % ID/g
same,Radioactivity distribution Large intestine,[2]; 30 min after administration,0.28 ± 0.04 % ID/g
same,Radioactivity distribution Liver,[2]; 30 min after administration,4.76 ± 0.15 % ID/g
same,Radioactivity distribution Lung,[2]; 30 min after administration,0.44 ± 0.02 % ID/g
same,Radioactivity distribution Muscle (lower limbs),[2]; 30 min after administration,0.13 ± 0.01 % ID/g
same,Radioactivity distribution Remaining whole body,[2]; 30 min after administration,0.11 ± 0.01 % ID/g
same,Radioactivity distribution Small intestine,[2]; 30 min after administration,3.54 ± 0.51 % ID/g
same,Radioactivity distribution Spleen,[2]; 30 min after administration,0.41 ± 0.06 % ID/g
same,Radioactivity distribution Stomach,[2]; 30 min after administration,1.11 ± 0.14 % ID/g
same,Radioactivity distribution Testis,[2]; 30 min after administration,0.08 ± 0.01 % ID/g
same,Radioactivity distribution Whole brain,[2]; 30 min after administration,0.01 ± 0.00 % ID/g
same,Adrenal gland/blood ratio of radioactivity accumulation,[2]; 60 min after administration,214.22 ± 75.71
same,Adrenal gland/fat ratio of radioactivity accumulation,[2]; 60 min after administration,371.37 ± 112.38
same,Adrenal gland/kidney ratio of radioactivity accumulation,[2]; 60 min after administration,17.62 ± 3.44
same,Adrenal gland/liver ratio of radioactivity accumulation,[2]; 60 min after administration,7.45 ± 2.80
same,Adrenal gland/muscle ratio of radioactivity accumulation,[2]; 60 min after administration,210.35 ± 70.86
same,Adrenal gland/small intestine ratio of radioactivity accumulation,[2]; 60 min after administration,4.17 ± 1.22
same,Radioactivity distribution Adrenal gland,[2]; 60 min after administration,21.41 ± 4.42 % ID/g
same,Radioactivity distribution Bladder (including urine),[2]; 60 min after administration,3.87 ± 0.37 % ID/g
same,Radioactivity distribution Blood,[2]; 60 min after administration,0.10 ± 0.02 % ID/g
same,Radioactivity distribution Fat,[2]; 60 min after administration,0.06 ± 0.02 % ID/g
same,Radioactivity distribution Femur,[2]; 60 min after administration,0.12 ± 0.03 % ID/g
same,Radioactivity distribution Heart,[2]; 60 min after administration,0.24 ± 0.04 % ID/g
same,Radioactivity distribution Kidney,[2]; 60 min after administration,1.23 ± 0.22 % ID/g
same,Radioactivity distribution Large intestine,[2]; 60 min after administration,0.41 ± 0.09 % ID/g
same,Radioactivity distribution Liver,[2]; 60 min after administration,3.08 ± 0.99 % ID/g
same,Radioactivity distribution Lung,[2]; 60 min after administration,0.48 ± 0.04 % ID/g
same,Radioactivity distribution Muscle (lower limbs),[2]; 60 min after administration,0.11 ± 0.03 % ID/g
same,Radioactivity distribution Remaining whole body,[2]; 60 min after administration,0.10 ± 0.02 % ID/g
same,Radioactivity distribution Small intestine,[2]; 60 min after administration,5.36 ± 1.39 % ID/g
same,Radioactivity distribution Spleen,[2]; 60 min after administration,0.32 ± 0.09 % ID/g
same,Radioactivity distribution Stomach,[2]; 60 min after administration,1.66 ± 0.45 % ID/g
same,Radioactivity distribution Testis,[2]; 60 min after administration,0.11 ± 0.03 % ID/g
same,Radioactivity distribution Whole brain,[2]; 60 min after administration,0.02 ± 0.00 % ID/g
same,stability in human plasma,[3],hardly metabolized and decomposed in the plasma
same,Radiochemical purity after incubation in human plasma,[3]; TLC analysis,88%
